Data on three compounds can be found in US10072034B2, “Kinase inhibitors” (Respivert Limited, priority 2016, dated 2018).

One may read the IC50 as the concentration at which inhibition is half-maximal.

≈ marks a conversion by molar mass, not a printed value. Where two headings read alike, the source gives them in different places.

Data set [1] is described as follows: Solubility in fasted-state simulated colonic fluid (FaSSCoF) at pH 6.5. It is filed as physicochemical. As to conditions: fasted-state simulated colonic fluid (FaSSCoF), 25 °C, pH 6.5, fassgf or other biorelevant, thermodynamic from solid, pH 6.5, 25° C. The method, then: The solubilities of compounds of the invention in FaSSCoF at pH 6.5 are determined using a modification of a previously-reported procedure (Vertzoni, M., et al. Pharm. Res. 2010, 27, 2187-2196). In place of the bile salt extract employed in the original procedure (which extract is no longer available), the modified procedure uses a mixture of sodium taurocholate (0.15 g), glycocholic acid (0.15 g), ursodeoxycholic acid (0.05 g), cholic acid (0.05 g), and glycodeoxycholic acid (0.05 g). These five bile acids are ground together with a mortar and pestle to produce a fine white powder that is incorporated into the FaSSCoF, as outlined below.
FaSSCoF medium: Tris(hydroxymethyl)aminomethane (Tris; 0.275 g) and maleic acid (0.44 g) are dissolved in water (35 mL) to give a solution whose pH is adjusted to 6.5 by treatment with 0.5M NaOH (ca. 12 mL). The solution is then made up to 50 mL with water. A portion of this Tris/maleate buffer solution (ca. 25 mL) is added to a 0.5 L round-bottomed flask, before being treated with 0.00565 g of the bile acid mixture described above. Solutions of phosphatidylcholine (0.0111 g) in DCM (0.15 mL) and palmitic acid (0.0013 g) in DCM (0.15 mL) are added, then the organic solvent is evaporated off under reduced pressure at 40° C. until a clear solution, with no perceptible DCM odour, is achieved. The volume of the evaporated solution is adjusted to 50 mL by addition of the remainder of Tris/maleate buffer, then BSA (0.115 g) is added, before being dissolved by gentle agitation.
Solubility Determination: Test compounds are suspended in the pH 6.5 FaSSCoF medium to give a maximum final concentration of 2-10 mg/mL. The suspensions are equilibrated at 25° C. for 24 h, before being filtered through a glass fibre C filter. The filtrates are then diluted as appropriate for injection and quantification by HPLC with reference to a standard. Different volumes of the standard, diluted and undiluted sample solutions are injected and the solubilities are calculated using the peak areas determined by integration of the peak found at the same retention time as the principal peak in the standard injection.

A short description of data set [2]: Solubility and dissolution rate in phosphate-buffered saline (further studies). It is filed as physicochemical. As to conditions: pH 6.5 with 0.5% by weight of simulated intestinal fluid or pH 7.2.
The next data set has as its target c-Src (Homo sapiens (Human), UniProt P12931). Description: c-Src enzyme inhibition (FRET, Z-LYTE). Type of data set: biochemical. As for the experimental part: (§1) The enzyme inhibitory activities of compounds disclosed herein are determined by FRET using synthetic peptides labelled with both donor and acceptor fluorophores (Z-LYTE, Invitrogen Ltd., Paisley, UK).
(§2) The inhibitory activities of compounds of the invention against c-Src and Syk enzymes (Invitrogen), are evaluated in a similar fashion to that described hereinabove. The relevant enzyme (3000 ng/mL or 2000 ng/mL respectively, 2.5 μL) is incubated with the test compound (either 1 μg/mL, 0.1 μg/mL, 0.01 μg/mL, or 0.001 μg/mL, 2.5 μL each) for 2 hr at RT. The FRET peptides (8 μM. 2.5 μL), and appropriate ATP solutions (2.5 μL, 800 μM for c-Src, and 60 μM ATP for Syk) are then added to the enzymes/compound mixtures and the mixture incubated for 1 hr. Development reagent (protease, 5 μL) is added for 1 hr prior to detection in a fluorescence microplate reader (Varioskan® Flash, ThermoFisher Scientific).
(§3) In all cases, the site-specific protease cleaves non-phosphorylated peptide only and eliminates the FRET signal. Phosphorylation levels of each reaction are calculated using the ratio of coumarin emission (donor) over fluorescein emission (acceptor), for which high ratios indicate high phosphorylation and low ratios indicate low phosphorylation levels. […]

The target of the next data set is p38 MAPKα (Homo sapiens (Human), UniProt Q16539). The data set can be described thus: p38 MAPKα enzyme inhibition (FRET, Z-LYTE; Method 2). Type of data set: biochemical. As for the experimental part: as §1
p38 MAPKα, sequence (Q16539 whole entry, canonical isoform): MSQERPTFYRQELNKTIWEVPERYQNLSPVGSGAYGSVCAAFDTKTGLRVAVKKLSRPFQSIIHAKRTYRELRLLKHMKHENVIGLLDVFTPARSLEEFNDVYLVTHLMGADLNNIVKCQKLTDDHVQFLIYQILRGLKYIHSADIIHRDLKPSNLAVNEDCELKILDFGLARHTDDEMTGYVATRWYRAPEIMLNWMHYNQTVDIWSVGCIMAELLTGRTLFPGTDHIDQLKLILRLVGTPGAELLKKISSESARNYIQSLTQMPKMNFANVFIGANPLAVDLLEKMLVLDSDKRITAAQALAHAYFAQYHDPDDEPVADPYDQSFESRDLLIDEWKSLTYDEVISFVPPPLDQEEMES
The inhibitory activities of test compounds against the p38 MAPKα isoform (MAPK14: Invitrogen) are evaluated indirectly by determining the level of activation/phosphorylation of the down-stream molecule, MAPKAP-K2. The p38 MAPKα protein (80 ng/mL, 2.5 μL) is mixed with the test compound (2.5 μL of either 4 μg/mL, 0.4 μg/mL, 0.04 μg/mL or 0.004 μg/mL) for 2 hr at RT. […] The mixture is incubated for 1 hr at RT. Development reagent (protease, 5 μL) is added for 1 hr prior to detection in a fluorescence microplate reader (Varioskan® Flash, ThermoFisher Scientific).
This method follows the same steps as Method 1 above, but utilises a higher concentration of the p38 MAPKα protein (2.5 μL of 200 ng/mL protein instead of 2.5 μL of 80 ng/mL protein) for mixing with the test compound (tested at either 1 μg/mL, 0.1 μg/mL, 0.01 μg/mL or 0.001 μg/mL).
as §3

Data set [3] deals with IFN gamma release in PBMCs. The data set can be described thus: IFN gamma release in CD3/CD28 stimulated PBMC cells (assay (c)). It is filed as cell-based. As to conditions: Homo sapiens, read-out: IC50 Values in PBMCs IFNγ. The method, then:
PBMCs from healthy subjects are separated from whole blood using a density gradient (Lymphoprep, Axis-Shield Healthcare). Cells are added to a 96 well plate pre-coated with a mixture of CD3/CD28 monoclonal antibodies (0.3 μg/mL eBioscience and 3 μg/mL BD Pharmingen respectively). Compound at the desired concentration is then added to the wells and the plate left for 3 days under normal tissue culture conditions. Supernatants are harvested and IL-2 and IFN gamma release determined by Sandwich ELISA (Duo-set, R&D System). The IC50 is determined from the dose response curve.

The test system of the next data set is IL-8 release in PBMCs. Description: LPS-induced IL-8 release in PBMC cells (assay (b)). It is filed as cell-based. As to conditions: Homo sapiens, LPS-stimulated PBMCs. From the text:
Peripheral blood mononuclear cells (PBMCs) from healthy subjects are separated from whole blood using a density gradient (Lymphoprep, Axis-Shield Healthcare). […] The supernatant is harvested for determination of IL-8 and TNFα concentrations by sandwich ELISA (Duo-set, R&D systems) and read on the fluorescence microplate reader (Varioskan® Flash, ThermoFisher Scientific).

The next data set relates to Jurkat cells. The data set can be described thus: Cell cytotoxicity assay, Jurkat cell viability (assay (r)). Type of data set: cell-based, human. As to conditions: 24 hours. The method, then: 1×10^5 Jurkat cells (immortalised human T lymphocytes) are added to the appropriate number of wells of a 96 well plate in 100 μL of media (RPMI supplemented with 10% foetal bovine serum). 1 μL of DMSO control (final concentration 1.0% v/v) or test compound (final concentration 20, 5 or 1 μg/mL) is added to the wells and incubated at 37° C., 5% CO2. After 24 hours, the plate is centrifuged at 1200 rpm for 3 minutes and the supernatant discarded. Cells are then resuspended in 150 μL (final concentration 7.5 μg/mL) of propidium iodide (PI) in PBS and incubated at 37° C., 5% CO2 for 15 minutes. After 15 minutes, cells are analysed by flow cytometry (BD accuri) using the FL3 window. The % viability is calculated as the % of cells that are P negative in the test wells normalised to the DMSO control.

The next data set concerns the target Syk (Homo sapiens (Human), UniProt P43405). The data set can be described thus: Syk enzyme inhibition (FRET, Z-LYTE). It is filed as biochemical. As for the experimental part: as §1, §2, §3
Setting [4] is: Run 1, read-out: pH 6.5 FaSSCoF Solubility Run 1.
[5] abbreviates: Run 2, read-out: pH 6.5 FaSSCoF Solubility Run 2.

c-Src, sequence (P12931 whole entry, looked up): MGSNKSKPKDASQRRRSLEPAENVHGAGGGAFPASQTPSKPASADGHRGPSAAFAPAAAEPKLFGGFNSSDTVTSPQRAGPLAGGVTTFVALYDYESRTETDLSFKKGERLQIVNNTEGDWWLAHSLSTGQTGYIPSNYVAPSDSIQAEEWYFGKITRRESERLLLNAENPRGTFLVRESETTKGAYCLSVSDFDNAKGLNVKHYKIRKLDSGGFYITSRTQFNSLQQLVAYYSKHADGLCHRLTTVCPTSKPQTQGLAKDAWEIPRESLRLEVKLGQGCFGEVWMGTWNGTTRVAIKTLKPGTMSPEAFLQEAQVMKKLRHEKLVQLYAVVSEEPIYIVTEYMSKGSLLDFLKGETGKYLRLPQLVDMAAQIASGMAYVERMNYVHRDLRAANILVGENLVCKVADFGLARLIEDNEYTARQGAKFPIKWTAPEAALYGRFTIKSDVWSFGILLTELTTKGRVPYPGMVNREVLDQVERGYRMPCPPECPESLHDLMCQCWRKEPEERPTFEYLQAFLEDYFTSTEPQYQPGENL

Turning to `COc1cc(Nc2cc(Oc3ccc(NC(=O)Nc4cc(C(C)(C)C)cc(NS(C)(=O)=O)c4OC)c4ccccc34)ccn2)cc(OCCOCCOCC(=O)[O-])c1.[Na+]` [Example 31, 2-(2-(2-(3-((4-((4-(3-(5-(tert-Butyl)-2-methoxy-3-(methylsulfonamido)phenyl)ureido)-naphthalen-1-yl)oxy)pyridin-2-yl)amino)-5-methoxyphenoxy)ethoxy)ethoxy)acetic acid, sodium salt], the solubility thermodynamic at 24 h in data set [1] (setting [4]) is 1900 µg/mL. For the same compound, the solubility thermodynamic at 24 h in data set [1] (setting [5]) was 2100 µg/mL. In addition, in data set [2], the “Dissolution rate relative to Reference Compounds A (hydrochloride salt) and B” value is “faster dissolution rate”; the “Solubility relative to Reference Compounds A (hydrochloride salt) and B” value is reported as “more soluble than”.

With `COc1cc(Nc2nccc(Oc3ccc(NC(=O)Nc4cc(C(C)(C)C)cc(NS(C)(=O)=O)c4OC)c4ccccc34)n2)cc(OCCOCCOCC(=O)O)c1` [Example 2, 2-(2-(2-(3-((4-((4-(3-(5-(tert-Butyl)-2-methoxy-3-(methylsulfonamido)phenyl)ureido)-naphthalen-1-yl)oxy)pyrimidin-2-yl)amino)-5-methoxyphenoxy)ethoxy)ethoxy)acetic acid], the solubility thermodynamic at 24 h in data set [1] (setting [4]) is 90 µg/mL (≈ 110 µM); in data set [1] (setting [5]) it was 60 µg/mL (≈ 73.3 µM). Besides, the IC50 amounted to 14 nM against c-Src; 23 nM at p38 MAPKα; 39.4 nM in data set [3]; 24.6 nM in the data set with IL-8 release in PBMCs; 8 nM on Syk. Also, in the data set on Jurkat cells, the “% Viability at 1 μg/mL” value is recorded as 99%. For the same compound, the “% Viability at 5 μg/mL” value in the data set on Jurkat cells was found to be 99%. Also, the “% Viability at 20 μg/mL” value in the data set with Jurkat cells came to 97%.

Consider `COCC(=O)Nc1cc(Oc2ccc(NC(=O)Nc3cc(C(C)(C)C)nn3-c3ccc(C)cc3)c3ccccc23)ccn1` [Reference compound, N-(4-(4-(3-(3-tert-butyl-1-p-tolyl-1H-pyrazol-5-yl)ureido)naphthalen-1-yloxy)pyridin-2-yl)-2-methoxyacetamide, reference compound], for which, in the data set with Jurkat cells, the “% Viability at 1 μg/mL” value was found to be 29%, the “% Viability at 5 μg/mL” value amounted to 26% and the “% Viability at 20 μg/mL” value was determined as 24%.
